Data as given in US10570164B2, “Steviol glycosides, their compositions and their purification” (The Coca-Cola Company, priority 2013, dated 2020).

What was measured:
[1] = system: panelists; assay: Taste evaluation: sweetness enhancement of 30 ppm added to 8% sucrose beverage against sucrose controls; type: in vivo, human; conditions: for sweetness enhancement: 30 ppm compound added to beverage containing 8% sucrose, citric acid/sodium citrate buffer; for increase in isosweetness provided by the compound: 30 ppm compound in beverage with 8% (w/v) sucrose; for isosweetness of beverage containing sucrose and compound: beverage with 8% (w/v) sucrose and 30 ppm compound, isosweet sucrose solution
Experimental: (§1) Solutions were made by dissolving all ingredients in treated water. For citric acid buffer, citric acid and potassium citrate were added in a sufficient amount to bring the pH to 3.2. Finished products were filled in 300 ml glass bottles and stored in the refrigerator and tasted the following day.
(§2) Beverages in citric acid/sodium citrate buffer were kept at 4° C. in the refrigerator and tasted the following day. Four panelists evaluated the beverages. Bottles were removed from the refrigerator and about 20 ml of beverage poured in 2 oz. plastic cups. Panelists were instructed not to swallow the samples and additional cups were provided to spit the sample in. Mineral water was given for palate rinsing before tasting and between tasting different samples.
Sweetness enhancement of rebaudioside N and rebaudioside O was evaluated by adding 30 ppm to a solution of 8% sucrose in citric acid/sodium citrate buffer (pH 3.2). The new solutions were then evaluated for their overall sweetness against three controls of 8%, 9%, and 10% sucrose in citric acid/sodium citrate buffer solutions (pH 3.2).

[2] = system: panelists; assay: Taste evaluation: overall sweetness of 30 ppm solutions against sucrose controls (sweetness recognition threshold); type: in vivo, human; conditions: for sweetness recognition threshold: lowest concentration perceivable by the human sense of taste; for sucrose equivalence / isosweetness of a solution of the compound alone: solution containing 30 ppm compound, no additional sweetener, isosweet sucrose solution
Experimental: as §1, §2
To evaluate 30 ppm of rebaudioside N and rebaudioside O for overall sweetness, panelists were provided solutions of 1%, 1.5%, and 2% sucrose in citric acid/sodium citrate buffer as controls. All panelists determined the overall sweetness of 30 ppm of rebaudioside N and rebaudioside O solutions in citric acid/sodium citrate buffer to fall between 1% and 1.5% sucrose controls. Accordingly, 30 ppm was determined to be the sweetness recognition threshold concentration for both compounds.

C=C1C[C@@]23CCC4[C@](C)(C(=O)OC5OC(CO)C(O)C(OC6OC(CO)C(O)C(O)C6O)C5OC5OC(C)C(O)C(O)C5O)CCC[C@@]4(C)[C@@H]2CC[C@]1(OC1OC(CO)C(O)C(OC2OC(CO)C(O)C(O)C2O)C1OC1OC(CO)C(O)C(O)C1O)C3 (stereo partly drawn) [Compound (2f), 13-[(2-O-β-D-glucopyranosyl-3-O-β-D-glucopyranosyl-β-D-glucopyranosyl)oxy]ent-kaur-16-en-19-oic acid-[(2-O-α-D-rhamnopyranosyl-3-O-β-D-glucopyranosyl-β-D-glucopyranosyl)ester]] was tested, and the sweetness enhancement [1] was 2.5-3.0%, the “increase in isosweetness provided by the compound” value [1] was 2.5-3.0 % (w/v) and the “isosweetness of beverage containing sucrose and compound” value [1] was 10.5-11.0 % (w/v). The sweetness recognition threshold [2] was “about 30 ppm” and the “sucrose equivalence / isosweetness of a solution of the compound alone” value [2] was 1.0-1.5 % (w/v).

In the case of C=C1C[C@@]23CCC4[C@](C)(C(=O)OC5OC(CO)C(O)C(OC6OC(CO)C(O)C(O)C6O)C5OC5OC(C)C(O)C(OC6OC(CO)C(O)C(O)C6O)C5O)CCC[C@@]4(C)[C@@H]2CC[C@]1(OC1OC(CO)C(O)C(OC2OC(CO)C(O)C(O)C2O)C1OC1OC(CO)C(O)C(O)C1O)C3 (stereo partly drawn) [Compound (2g), 13-[(2-O-β-D-glucopyranosyl-3-O-β-D-glucopyranosyl-β-D-glucopyranosyl)oxy]ent-kaur-16-en-19-oic acid-[(2-O-(3-O-β-D-glucopyranosyl-α-D-rhamnopyranosyl)-3-O-β-D-glucopyranosyl-β-D-glucopyranosyl)ester]], the sweetness enhancement [1] is reported as “about 2.0%”, the “overall sweetness of beverage against sucrose controls” value ([1]; 30 ppm compound and 8% sucrose in citric acid/sodium citrate buffer (pH 3.2), 8%, 9%, 10% sucrose controls) is reported as roughly 10% and the “increase in isosweetness provided by the compound” value [1] is reported as 2.0 % (w/v). The “isosweetness of beverage containing sucrose and compound” value [1] was 10.0 % (w/v), the sweetness recognition threshold [2] was “about 30 ppm” and the “sucrose equivalence / isosweetness of a solution of the compound alone” value [2] was 1.0-1.5 % (w/v).
